Data from US10245238B2, “Composition for oral intake” (THERAVALUES CORPORATION, priority 2014, dated 2019).

Assay: Oral absorbability of various complexes: curcumin concentration in blood plasma after forced oral administration
Type: in vivo
Conditions: SD rats, curcumin dose 10 mg/kg
Protocol: (Oral Absorbability of Various Complexes)
For the test animal, 6-week old SD rats (male, body weight: 170 g to 260 g, Charles River Laboratories Japan, Inc.) were used.
In regard to the administration method, the various complexes (Examples 1 to 13) produced as described above were each added to water for injection in a predetermined amount, subsequently the mixture was made up to 20 mL so as to obtain a curcumin concentration of 1 mg/mL, the mixture was mixed using an ultrasonic generator, and the mixture was forcibly orally administered to test animals (n 3 or 5) that had been fasted for 12 hours or longer before administration, using a feeding needle, such that the curcumin dose would be 10 mg/kg (Administration Test Examples 1 to 13) or 50 mg/kg (Administration Test Example 14).
Meanwhile, the cases of administering curcumin base powder (Comparative Test Example 1); physical mixture obtained by simply physically mixing curcumin base powder and hydroxypropylmethyl cellulose powder or hydroxypropyl cellulose powder (curcumin:HPMC=1:3 or curcumin HPC=1:3) (Comparative Test Examples 2 and 3); or CR-031P powder (manufactured by Theravalues Corp.), which is a turmeric dye composition obtained by combining micronized curcuminoid with gum ghatti (Comparative Test Examples 4 and 5) was designated as controls.
For the measurement of the concentration of curcumin and/or an analog thereof in blood plasma, measurement was made by the following method, using heparinized blood plasma obtained by collecting about 0.5 mL of blood from the jugular vein of the test animals without anesthesia, after 30 minutes, 1 hour, and 2 hours from the initiation of administration.
100 μL of 0.1 M acetate buffer solution (pH 5.0) and 10 μL of β-glucuronidase solution (about 68,000 units/mL) were added to 20 μL of the collected blood plasma, and the mixture was maintained for 1 hour at 37° C. Subsequently, 10 μL of 50% (v/v) methanol including 20 ng/mL of mepronil, which was an internal standard liquid, and 0.5 mL of chloroform were added thereto, the mixture was stirred for 1 minute using a vortex mixer, and then the mixture was mixed for 15 minutes using an ultrasonic generator. An extraction-treated liquid thus prepared was separated into chloroform layer and an aqueous layer by centrifugation (13,000×g, for 5 minutes, at room temperature). This extraction treatment was repeated two times. Subsequently, the chloroform layer was collected, and the solvent was distilled off from this layer using a vacuum centrifugal concentrator to solid-dry the chloroform layer. 100 μL of 50% (v/v) methanol was added thereto, and then the mixture was centrifuged (13,000×g, for 5 minutes, at room temperature) to collect the supernatant.
2 μL of the supernatant produced as described above was subjected to an analysis using LC-MS/MS (manufactured by Shimadzu Corp.), and thereby the curcumin concentration in the blood plasma was measured. The conditions for the LC-MS/MS analysis were set such that the LC column was ATLANTIS T3 (2.1×150 mm, 3 μm, manufactured by Waters Corp.), the column temperature was 40° C., the flow rate was 0.2 mL/min, and the mobile phase included A: 0.1% aqueous solution of formic acid, and B: 0.1% formic acid/acetonitrile, and gradient elution was performed under the following conditions. […]

AUC (0 to 2 h): 33.9 ng/mL · 0-2 h
Cmax (male, rat, plasma): 49.8 ng/mL
concentration at 0.5 h (male, rat, plasma, 0.5 h after administration): 7.8 ng/mL
concentration at 1 h (male, rat, plasma, 1 h after administration): 17.2 ng/mL
concentration at 2 h (male, rat, plasma, 2 h after administration): 34.2 ng/mL
Structure (SMILES): COc1cc(/C=C/C(=O)/C=C(O)/C=C/c2ccc(O)c(OC)c2)ccc1O [Curcumin base powder, curcumin]
